Structures can show the parent of a compound that is named as a salt. Where two headings read alike, the source gives them in different places.
Experiments:
[1] = not given; remark: listed apart in the source
[2] = 90% H2O/D2O; for Percent Degradation: 31P NMR
[3] = system: corn plants; format: in vivo
[4] = physchem; conditions: buffer, t1/2 (days) of first step
[5] = format: physicochemical
[6] = system: people; conditions: cited from earlier work
[7] = system: radish; conditions: cited from earlier work
[8] = system: peas; conditions: in vivo; cited from earlier work
[9] = system: lettuce plants; conditions: in vivo; cited from earlier work
[10] = system: pea plants; assay: Growth of peas exposed to dibutyldithiophosphate (pots, 88 days); format: in vivo
Experimental: Peas were planted and grown in 8.25 inch TEKU pots. The pots were packed finger tight with potting mix #4 from Beautiful Land Products. The pea seeds were planted approximately 1.5 inches deep. 25 seeds were planted per dosing of dibutyldithiophosphate potassium salt. After the seeds were planted into the soil the desired amount of dibutyldithiophosphate for 32 doses was added to 160 mL of tap water. After mixing well for 10 minutes, 5 mL of the dibutyldithiophosphate solution was then added to the top of each seed after it was planted in the soil. Soil was then used to cover the seed. After adding the salt, the plants were moved outside in full sunlight until harvest. The pea plants were watered daily. Peter's Professional B 20-20-20 water soluble fertilizer was used at 1 tablespoon per 3 gallons of tap water and 350 mL of this solution was added to each plant. Plants were fertilized on day 44, 51, 66, 73, and 81.
The pea plants were harvested after 88 days. The plant was harvested by cutting the above soil portion of the plant at the root-stem boundary. The above ground portion of the plant was weighed in its entirety. Next the pods were removed, counted and weighed separately from the rest of the plant. Statistical analysis was performed using IBM SPSS Statistics 25. Dunnett's 2-sided t-test was performed to determine significance. Data represented are mean±standard error with ** indicating α<0.05 and * indicating α<0.1.

[11] = system: soybeans; assay: Field trial: harvest yield of soybeans; format: in vivo; conditions: 2 kg (per acre), side dressing, vs plants not exposed
From the text: All essential plant nutrients (N, P, K, and S) were applied in non-limiting amounts. Prior to planting soybeans, the fields were fertilized with 60 lb acre of P2O5, 80 lb per acre of K2O, and 20 lb per acre of sulfur. The soybean seeds were a 2.8-3.2 relative maturity planted at 120,000 to 140,000 seeds per acre. All field management were designed to effectively control weed and insect pests to optimize soybean growth and yield. The soybeans were planted and either 0, 0.5, 1.0, or 2.0 kg per acre of dibutyldithiophosphate was applied as a side dressing to the soybean plants. The dibutyldithiophosphate was dissolved in water and applied. The harvest weight was determined for each plot and corrected for slight differences in moisture content.

[12] = 85° C., 90% H2O/D2O, only phosphoric acid observed
[13] = water buffered at pH 6.7, FIG. 4
[14] = hydrolysis, rate constants 25 to 85° C.
[15] = 20 mg per plant, potassium salt, 88 days

SMILES: CCCCOP(=S)(S)OCCCC [Example 1, Dibutyldithiophosphate Ammonium Salt]
- Rate of first-step of hydrolysis (85° C.) (85° C., 90% H2O/D2O): 0.00096 h⁻¹
- Time to complete hydrolysis [12]: 180 days
- rate of hydrolysis, fold slower than the compound of Example 2 (85° C., Table 2): 3.5 ×
- rate of hydrolysis, fold slower than the dithiophosphate of Example 3 (85° C., Table 2): 7.4 ×
- rate of hydrolysis, fold slower than the dithiophosphate of Example 4 (85° C., Table 2): 1.4 ×
- release of H2S (rank among the dithiophosphates) [1, 13]: lowest release of H2S
- Percent Degradation ([2]; 30 days, room temperature): <3%
- increase in weight of corn plants ([3]; 1 mg ammonium salt added to soil adjacent to seed, 4 weeks, vs plants grown without): 39%

SMILES: S=P1(S)OCCO1 [Example 2]
- half-life [4]: 204 h

SMILES: CC1COP(=S)([S-])O1.[K+] (stereo not drawn) [Example 3]
- half-life [4]: 98.4 h

SMILES: CC(C)[C@@H]1CC[C@@H](C)C[C@H]1OP(=S)([S-])O[C@@H]1C[C@H](C)CC[C@H]1C(C)C.[K+] [Example 5]
- release of H2S ([1]; pH 6.7): released H2S

SMILES: CCc1ccc(OP(=S)([S-])Oc2ccc(CC)cc2)cc1.[K+] [Example 6]
- half-life [4]: 93.6 h

SMILES: CC(C)(C)OP(=S)(S)OC(C)(C)C [Example 8, di(tert-butanol)dithiophosphate Sodium Salt]
- Rate of first-step of hydrolysis (85° C.) (85° C., 90% H2O/D2O): 13.2 h⁻¹
- Time to complete hydrolysis [12]: 0.0493 days
- rate of hydrolysis, fold slower at room temperature than at 85° C. (room temperature vs 85° C.): 2,600 ×
- Rate of first-step of hydrolysis (room temperature, 90% H2O/D2O): 0.0051 h⁻¹
- Time to complete hydrolysis (room temperature, 90% H2O/D2O): 30 days
- release of H2S (rank among the dithiophosphates) [1, 13]: highest release of H2S
- ΔG^‡ (25° C.) ([5]; 25° C.): 25.26 kcal/mol
- −TΔS^‡ (25° C.) ([5]; 25° C.): -2.58 kcal/mol
- ΔΔG^‡ ([5]; 25° C. vs 85° C.): 0.526 kcal/mol
- ΔG^‡ (85° C.) ([5]; 85° C.): 24.74 kcal/mol
- sign of ΔS^‡ (in words) ([5]; hydrolysis): positive
- ΔH^‡ [5, 14]: 27.84 kcal/mol
- ΔS^‡ [5, 14]: 36.3 J/mol · K
- hydrolysis after 30 days ([2]; room temperature, 30 days): completely hydrolyzed
- Percent Degradation ([2]; 30 days, room temperature): 100%
- percent degraded ([2]; day 12, room temperature): 62%
- percent degraded ([2]; day 20, room temperature): 88%

SMILES: CCCSP(=S)(S)SCCC [Example 10]
- half-life [4]: 3.12 h

SMILES: S=P1(S)SCCS1 [Example 11]
- half-life [4]: 2.04 h

SMILES: S=P1(S)SCCCS1 [Example 12]
- half-life [4]: 36 h

SMILES: S=P(S)(Sc1ccccc1)Sc1ccccc1 [Example 13]
- half-life [4]: 31.2 h

SMILES: S=P1(S)OCCS1 (stereo not drawn) [Example 14]
- release of H2S (rank among the dithiophosphates) ([1]; pH 6.7): highest release of H2S

SMILES: S [Example H2S, hydrogen sulfide]
- level in the air that can lead to negative health effects (headaches, breathing problems in asthma) ([6]; exposure in the air): 2 ppm
- level immediately dangerous to life and health ([6]; exposure): 100 ppm

SMILES: C1COCCN1.COc1ccc(P(=S)(S)N2CCOCC2)cc1 (stereo not drawn) [GYY-4137]
- growth of radish plants ([7]; in vivo): increased the growth
- harvest yield of radishes ([7]; milligram loadings): doubled
- growth of pea plants [8]: increased the growth
- growth of lettuce plants [9]: increased the growth

SMILES: CCCCOP(=S)(S)OCCCC [dibutyldithiophosphate]
- number of pods, plant weight and total pod weight ([10]; 10 mg per plant, potassium salt, 88 days): statistically significant increase
- increase in number of pods [10, 15]: 55%
- increase in plant weight [10, 15]: 46%
- increase in total pod weight [10, 15]: 45%
- germination compared to the control plants ([10]; 150 mg and 500 mg, potassium salt): reduction in germination
- number of plants germinating ([10]; 150 mg, 25 seeds planted per dosing): 6 plants
- germination of seeds ([10]; 500 mg): None of the seeds
- heights of corn plants ([3]; in vivo): Little statistically significant difference
- weight of corn plants ([3]; in vivo): improvements in weights
- weight of corn plants (significance) ([3]; in vivo): statistically significant improvements
- increase in harvest yield of soybeans [11]: 4.4%

Reference: patent US20230263164A1 (priority 2020, published 2023)
